Entries after “also recorded” stand apart in the source; their conditions may differ.
Key:
CD14 receptor = details: mononuclear cells from control and injured subjects, co-culture with 100 μM PGE2
Method: To confirm that injury was not down regulating all circulating mononuclear cell surface receptors, the expression of the CD14 receptor, which is ubiquitous on the surface of mononuclear cells, was evaluated.

EP2 receptor = EP2 receptor expression in LPS stimulated human PBMC's via RT-PCR; assay type: cell-based; details: control PBMC's
Method: (§1) Serial dilutions were made to co-culture cells with a final concentration of […] NS-398 in a 0.1% DMSO. Control and trauma groups were co-cultured with 0.1% DMSO vehicle for comparisons with NS-398 treated groups.

EP4 receptor = EP4 receptor expression in LPS stimulated human PBMC's via RT-PCR; assay type: cell-based; details: control PBMC's
Method: as §1

[1] = exogenous PGE2 from 10^−4 μM, below 100 μM

## CCCCC[C@H](O)/C=C/[C@H]1[C@H](O)CC(=O)[C@@H]1C/C=C\CCCC(=O)O [PGE2, Prostaglandin-E2]
CD14 receptor
  CD14 receptor expression: did not markedly alter the levels of CD14 receptor expression
EP2 receptor; 100 μM exogenous PGE2
  EP2 receptor expression: attenuated to levels below those seen in control samples; also recorded: Decreased expression
EP2 receptor; [1]
  EP2 receptor expression: no change in receptor expression; also recorded: No attenuation
EP4 receptor; 100 μM exogenous PGE2
  EP4 receptor expression: attenuated to levels below those seen in control samples; also recorded: Decreased expression
EP4 receptor; [1]
  EP4 receptor expression: no change in receptor expression; also recorded: No attenuation

From patent US20020006915A1, “Use of COX-2 inhibitors to treat sepsis, complications thereof, and EP receptor modulation” (priority 2000, published 2002)
